ChEMBL document CHEMBL3875211, “Design and synthesis of new coumarin hybrids and insight into their mode of antiproliferative action” (Bioorg Med Chem, 2017)
Activity calls are given as the source filed them. No cut-off for these calls is given here.

Tests used:
[1] = system: K562; assay: Induction of apoptosis in human K562 cells assessed as increase in caspase-9 protein expression at 1.21 uM after 24 hrs by ELISA; assay type: functional, cell-based
[2] = Cytotoxicity against human WI38 cells assessed as reduction in cell viability after 48 hrs by MTT assay; assay type: toxicity, cell-based, WI-38
[3] = Antiproliferative activity against human HepG2 cells after 48 hrs by MTT assay; assay type: functional, cell-based; conditions: HepG2, 48 h
[4] = Antiproliferative activity against human K562 cells after 48 hrs by MTT assay; assay type: functional, cell-based; conditions: K562, 48 h
[5] = system: K562; assay: Induction of apoptosis in human K562 cells assessed as increase in caspase-3 protein expression at 1.21 uM after 24 hrs by ELISA; assay type: functional, cell-based
[6] = system: HepG2; assay: Induction of apoptosis in human HepG2 cells assessed as increase in caspase-3 protein expression at 0.65 uM after 24 hrs by ELISA; assay type: functional, cell-based
[7] = system: HepG2; assay: Induction of apoptosis in human HepG2 cells assessed as increase in caspase-9 protein expression at 0.65 uM after 24 hrs by ELISA; assay type: functional, cell-based
[8] = system: HepG2; assay: Induction of apoptosis in human HepG2 cells assessed as decrease in Bcl2 mRNA expression at antiproliferative IC50 by RT-PCR method; assay type: functional, cell-based
[9] = system: HepG2; assay: Induction of apoptosis in human HepG2 cells assessed as increase in Bax mRNA expression at antiproliferative IC50 by RT-PCR method; assay type: functional, cell-based
[10] = Cell cycle arrest in human HepG2 cells assessed as accumulation at S phase at 0.65 uM after 24 hrs by propidium iodide staining based flow cytometry (reference value: 25.2%); assay type: functional
[11] = system: HepG2; assay: Induction of apoptosis in human HepG2 cells at 0.65 uM after 24 hrs by propidium iodide staining based flow cytometry (reference value: 1.2%); assay type: functional
[12] = Cell cycle arrest in human HepG2 cells assessed as accumulation at G2 phase at 0.65 uM after 24 hrs by propidium iodide staining based flow cytometry (reference value: 7.2%); assay type: functional
[13] = Cell cycle arrest in human HepG2 cells assessed as accumulation at G1 phase at 0.65 uM after 24 hrs by propidium iodide staining based flow cytometry (reference value: 66.4%); assay type: functional
[14] = system: K562; assay: Induction of apoptosis in human K562 cells assessed as decrease in Bcl2 mRNA expression at antiproliferative IC50 by RT-PCR method; assay type: functional, cell-based
[15] = system: K562; assay: Induction of apoptosis in human K562 cells assessed as increase in caspase-9 protein expression at 0.93 uM after 24 hrs by ELISA; assay type: functional, cell-based
[16] = system: K562; assay: Induction of apoptosis in human K562 cells assessed as increase in Bax mRNA expression at antiproliferative IC50 by RT-PCR method; assay type: functional, cell-based
[17] = system: K562; assay: Induction of apoptosis in human K562 cells assessed as increase in caspase-3 protein expression at 0.93 uM after 24 hrs by ELISA; assay type: functional, cell-based
[18] = Cell cycle arrest in human K562 cells assessed as accumulation at G2 phase at 0.49 uM after 24 hrs by propidium iodide staining based flow cytometry (reference value: 9.3%); assay type: functional
[19] = system: K562; assay: Induction of apoptosis in human K562 cells at 0.49 uM after 24 hrs by propidium iodide staining based flow cytometry (reference value: 0.8%); assay type: functional
[20] = Cell cycle arrest in human K562 cells assessed as accumulation at G1 phase at 0.49 uM after 24 hrs by propidium iodide staining based flow cytometry (reference value: 68.2%); assay type: functional
[21] = Cell cycle arrest in human K562 cells assessed as accumulation at S phase at 0.49 uM after 24 hrs by propidium iodide staining based flow cytometry (reference value: 21.7%); assay type: functional
[22] = system: K562; assay: Induction of apoptosis in human K562 cells assessed as increase in caspase-9 protein expression at 0.49 uM after 24 hrs by ELISA; assay type: functional, cell-based
[23] = system: K562; assay: Induction of apoptosis in human K562 cells assessed as increase in caspase-3 protein expression at 0.49 uM after 24 hrs by ELISA; assay type: functional, cell-based
[24] = system: K562; assay: Induction of apoptosis in human K562 cells assessed as increase in caspase-3 protein expression at 1.24 uM after 24 hrs by ELISA; assay type: functional, cell-based
[25] = system: K562; assay: Induction of apoptosis in human K562 cells assessed as increase in caspase-9 protein expression at 1.24 uM after 24 hrs by ELISA; assay type: functional, cell-based
[26] = system: HepG2; assay: Induction of apoptosis in human HepG2 cells assessed as increase in caspase-9 protein expression at 0.77 uM after 24 hrs by ELISA; assay type: functional, cell-based
[27] = system: HepG2; assay: Induction of apoptosis in human HepG2 cells assessed as increase in caspase-3 protein expression at 0.77 uM after 24 hrs by ELISA; assay type: functional, cell-based

Compound: COc1ccc(-c2cc(-c3cc4cccc(OC)c4oc3=O)nc(C#N)c2N)cc1
- Activity [1]: Active
- IC50 at 48 h [2]: 8.66 µM
- IC50 [3]: 1.25 µM
- IC50 [4]: 1.21 µM
- Activity [5]: Active

Compound: CCOC(=O)c1ccc(-c2cc3cccc(OC)c3oc2=O)nc1C
- IC50 at 48 h [2]: 67.7 µM
- IC50 [3]: 4.92 µM
- IC50 [4]: 8.82 µM

Compound: COc1ccc(-c2cc(-c3cc4cccc(OC)c4oc3=O)nc(C#N)c2N)cc1OC
- IC50 at 48 h [2]: 36.1 µM
- IC50 [3]: 3.2 µM
- IC50 [4]: 1.61 µM

Compound: COc1ccc(/C=C/C(=O)c2cc3cccc(OC)c3oc2=O)cc1
- Activity [6]: Active
- Activity [7]: Active
- IC50 at 48 h [2]: 293 µM
- Activity [8]: Active
- IC50 [3]: 0.65 µM
- Activity [9]: Active
- IC50 [4]: 1.09 µM
- Activity [10]: 28.8%
- Activity [11]: 16.3%
- Activity [12]: 19.1%
- Activity [13]: 35.8%

Compound: COc1ccc(/C=C/C(=O)c2cc3cccc(OC)c3oc2=O)cc1OC
- IC50 at 48 h [2]: 33.1 µM
- IC50 [3]: 0.82 µM
- IC50 [4]: 0.93 µM
- Activity [14]: Active
- Activity [15]: Active
- Activity [16]: Active
- Activity [17]: Active

Compound: COc1cc(/C=C/C(=O)c2cc3cccc(OC)c3oc2=O)cc(OC)c1OC
- IC50 at 48 h [2]: 9.55 µM
- IC50 [3]: 2.02 µM
- IC50 [4]: 1.36 µM

Compound: COc1cc(/C=C(\C#N)C(=O)N/N=C(\C)c2cc3cccc(OC)c3oc2=O)cc(OC)c1OC
- Activity [18]: 15.5%
- Activity [19]: 9.7%
- IC50 at 48 h [2]: 11.1 µM
- Activity [20]: 44.6%
- IC50 [3]: 1.57 µM
- Activity [21]: 30.2%
- IC50 [4]: 0.49 µM
- Activity [14]: Active
- Activity [22]: Active
- Activity [16]: Active
- Activity [23]: Active

Compound: COc1cccc2cc(-c3ccc(C(C)=O)c(C)n3)c(=O)oc12
- Activity [24]: Active
- IC50 at 48 h [2]: 354 µM
- IC50 [3]: 9.1 µM
- IC50 [4]: 1.24 µM
- Activity [25]: Active

Compound: COc1ccc(/C=C(\C#N)C(=O)N/N=C(\C)c2cc3cccc(OC)c3oc2=O)cc1
- IC50 at 48 h [2]: 48.4 µM
- Activity [8]: Active
- Activity [26]: Active
- IC50 [3]: 0.77 µM
- Activity [9]: Active
- IC50 [4]: 3.96 µM
- Activity [27]: Active

Compound: COc1cccc2c1C(=O)c1c(O)c3c(c(O)c1C2=O)C[C@@](O)(C(=O)CO)C[C@@H]3O[C@H]1C[C@H](N)[C@H](O)[C@H](C)O1 [DOXORUBICIN]
- IC50 [3]: 4.93 µM
- IC50 [4]: 2.96 µM

Compound: COc1ccc(C[C@@H](O)c2cc(OC)c(OC)c(OC)c2)cc1O [COMBRETASTATIN]
- IC50 [3]: 3.4 µM
- IC50 [4]: 3.46 µM

Compound: COc1ccc(/C=C(\C#N)C(=O)N/N=C(\C)c2cc3cccc(OC)c3oc2=O)cc1OC
- IC50 at 48 h [2]: 3.3 µM
- IC50 [3]: 0.93 µM
- IC50 [4]: 8.71 µM
